Measured values taken from ChEMBL document CHEMBL1126998, “-lactam derivatives from 1-H-1,2-diazepines” (Bioorg Med Chem Lett, 1993).
Several values for one entry are separate records, joined by “and”; a condition that tells them apart may be missing. Equal entries are not always repeated.

Key:
[1] = tested on: JM1; test: Tested for antiviral uM; Activity expressed as % inhibition of syncytium; assay type: functional, Homo sapiens
[2] = tested on: JM1; test: (§1) Tested for antiviral activity of compound against HIV (Strain GB 8) in JM cells; assay type: functional, Homo sapiens
[3] = tested on: JM1; test: as §1; assay type: functional, cell-based; settings: Homo sapiens
[4] = tested on: JM1; test: Tested for the cytotoxicity against JM cells at 100 uM in an MTT assay; assay type: functional, Homo sapiens
[5] = tested on: JM1; test: as §1; assay type: functional, cell-based; settings: Homo sapiens; remark: listed apart in the source

Compound | Inhibition [1] | IC90 [2] [µM] | IC90 ([2]; Homo sapiens, JM1) [µM] | IC50 [3] [µM] | Cytotoxicity [4] | IC50 [5] [µM]
COC(=O)NN1C(=O)[C@H](C)[C@H]1[C@@H]1NC[C@@H](O)[C@H]1O.Cl | 20% and 27% | – | – | – | – | –
O[C@H]1[C@H](O)[C@@H](O)CN2CC[C@H](O)[C@H]12 [CASTANOSPERMINE] | – | 24.5 | 28.2 | 8.8 | 0% and 4% | 7.3
